These results are taken from publication PMC6733874, “Zebrafish behavioural profiling identifies GABA and serotonin receptor ligands related to sedation and paradoxical excitation” (Nature Communications, 2019).

The test system of data set [1] is zebrafish. The class given is in vivo. The note with it: for rescue of behavioral phenotypes by pretreatment with the GABAAR antagonist PTX: violet light and eASR phenotypes, in words.
Data set [2] concerns human GABAARs (α1β2 and α1β2γ2). The class given is cell-based. The text has this:
To determine if these compounds targeted human GABAARs, we tested them in a fluorescent imaging plate reader (FLIPR) assay on HEK293 cells transfected with α1β2 and α1β2γ2 human GABAAR subtypes. […]. […] While some of the compounds appeared to function in this assay as negative allosteric modulators (NAMs), reductions in fluorescence were likely due to toxicity-induced cell loss (Fig. 2f, Supplementary Table 5).
We used the FLIPR system (Molecular Devices) to quantify GABA-evoked activity of human GABAARs. We chose a membrane potential dye (Molecular Devices) to measure changes in membrane potentials and stably transfected HEK293 cells that expressed α1, β2 and γ2. Since we observed an increase in GABA-evoked responses when transfected with γ2 transiently, we describe the cells as having a low level of γ-subunit expression, indicating heterogeneity of GABAAR compositions in the cell (α1β2 or α1β2γ2). To assay for direct agonists, fluorescence was subtracted pre- and post compound addition. To assay for PAMs, cells were treated with compound at 20 uM and then with 5 uM GABA.

Data set [3] deals with zebrafish. In words: Optovin-response suppression assay (pain-related). The note with it: in words; relative to concentrations that caused eASRs.
Source text: To determine if any of the hit compounds may be analgesic, we used optovin-induced motor activity as a potential analgesia-related assay.
The test system of data set [4] is zebrafish. The class given is in vivo. The protocol: Behavioral assays for pERK. Animals were treated with DMSO or drug for one hour then exposed to a low-volume acoustic stimulus every 10 seconds for 10 minutes. Optovin-treated animals were stimulated with violet light for one second every 10 seconds for 10 minutes. Videos were recorded to measure response to the stimulus and quantified by motion index (MI). […]

Data set [5] relates to zebrafish. In words: Viability of anesthetic treated animals. The class given is in vivo. The note with it: for alive/total 10 min: 10 minutes post treatment; for alive/total 1 hour: 1 hour post treatment; for alive/total 5 hours: 5 hours post treatment. The protocol: Behavioral assays for pERK. Animals were treated with DMSO or drug for one hour then exposed to a low-volume acoustic stimulus every 10 seconds for 10 minutes. Optovin-treated animals were stimulated with violet light for one second every 10 seconds for 10 minutes. Videos were recorded to measure response to the stimulus and quantified by motion index (MI). Animals were immediately […]
High speed imaging. Digital video was recorded at 500-1000 frames per second using an Integrated Design Tools NX5-S1 digital camera. Assay duration was 500-1000 ms. Low amplitude tap stimuli was delivered as described above. Videos and still images were assembled using Fiji (imageJ) and […]
RNAscope. Zebrafish (6 dpf) were fixed using 10% normal buffered formaldehyde overnight at 4 °C, dehydrated in 100% methanol and stored at -20 °C until the assay was performed. Fluorescent in situ hybridization was performed using the RNAScope kit (Advanced Cell Diagnostics)4 with the following modifications: target retrieval was performed using 150 mM Tris pH 9.5 for 15 minutes at 70 °C, washes were performed using 0.2x SSCT (0.01% Tween-20, […], 0.3mM TriNa-citrate, pH7), samples were stored overnight after probe hybridization and 2x 5 minute washes in 5x SSC ([…], pH7) at room temperature before amplification and detection steps were performed the following day.
Viability. Animals were scored manually to determine viability after anesthetic treatments. 100 animals were scored per condition at 10 minutes, 1 hour and 5 hours post treatment. Strong heart rate was observed under a dissecting scope (Leica M-80) for our viability score. […]
rdkit function FingerprintMols package written for python. Tanimoto similarity function was used with a […]

The mark [6] stands for this setting: compound at 20 uM then 5 uM GABA, DMSO = 1.
[7] abbreviates: larvae, low-volume acoustic stimulus.
The mark [8] stands for this setting: compound at 20 uM then 5 uM GABA, Positive/Negative.

“Also recorded” adds a separate entry of the source. Like-named read-outs stand apart in the source and are kept apart here.

For the molecule `COc1ccccc1N1CCN(C(=O)c2ccc(C(=O)c3c(C)cc(C)cc3C)cc2)CC1` [compound 6013263], the “rescue of behavioral phenotypes by pretreatment with the GABAAR antagonist PTX” value (shortened to “rescue of behavioral phenotypes”) in the data set with zebrafish [1] is given as “partially rescued”. The “Ave Norm FLIPR Score” value in data set [2] (setting [6]) is recorded as 1.035.

For `CC(=O)[C@H]1CC[C@H]2[C@@H]3CCC4=CC(=O)CC[C@]4(C)[C@H]3CC[C@]12C` [progesterone], the “enhanced acoustic startle response (eASR) phenotype, in words” value (shortened to “enhanced acoustic startle response”) in the data set with zebrafish [1] (setting [7]) was “most potent compounds tested”. For the same molecule, the “Ave Norm FLIPR Score” value in data set [2] (setting [6]) stood at 17.8. In addition, the “FLIPR Results” value in data set [2] (setting [8]) was “Positive”.

Consider `Cc1ccc(Cl)cc1NC(=O)COc1c(C)cccc1C` [compound 5942595], for which the “rescue of behavioral phenotypes” value with zebrafish [1] is reported as “partially rescued”. In data set [2] (setting [6]), the “Ave Norm FLIPR Score” value is on record as 84.91. The “FLIPR Results” value in data set [2] (setting [8]) was “Positive”. Further, the “GABAAR PAM activity in FLIPR, in words” value in data set [2] (in the presence of GABA) is on record as “potentiated GABAARs significantly greater than positive controls; also recorded: significantly greater than the positive controls”. Also, the “optovin response (optovin-induced motor activity)” value (from here on “optovin response”) in the data set with zebrafish [3] was “blocked optovin-induced motor activity”.

As for `Cc1cc(/C=C2/SC(=S)NC2=O)c(C)n1-c1cccnc1` [optovin], the “pERK labeling (neuronal activity)” value in the data set with zebrafish [4] (in words) was “neuronal activity increased in many brain regions including the telencephalon and optic tectum but not in the hindbrain”.

Regarding `CCCCn1c2ccccc2n2c(C(=O)OCC)c(C)nc12` [compound 5658603], in the data set on zebrafish [1], the “rescue of behavioral phenotypes” value is reported as “rescued”. Moreover, the “Ave Norm FLIPR Score” value in data set [2] (setting [6]) is 55.24. Also, the “FLIPR Results” value in data set [2] (setting [8]) is recorded as “Positive”. Further, the “optovin response” value in the data set with zebrafish [3] was “did not suppress the optovin response”.

Turning to `O=C(Nc1c(C(=O)Nc2ccc(Cl)cc2)cnn1-c1ccccc1)c1ccco1` [compound 5583877], the “Ave Norm FLIPR Score” value in data set [2] (setting [6]) worked out at 36.71. Further, the “FLIPR Results” value in data set [2] (setting [8]) is reported as “Positive”.

With `CCOC(=O)c1c(NC(=O)C2CCCC2)sc2c1CCCC2` [compound 7282929], the “Ave Norm FLIPR Score” value in data set [2] (setting [6]) is listed as 17.15. Besides, in data set [2] (setting [8]), the “FLIPR Results” value is “Positive”.

Take `CC(=O)c1c(C)nc2n(Cc3ccccc3)c3ccccc3n12` [compound 5573728]: the “Ave Norm FLIPR Score” value in data set [2] (setting [6]) is 27.62. In data set [2] (setting [8]), the “FLIPR Results” value is listed as “Positive”.

`CC(C)c1ccc(NS(=O)(=O)c2ccc3c(c2)OCCO3)cc1` [compound 6212662]: the “Ave Norm FLIPR Score” value in data set [2] (setting [6]) is listed as -5.179. Besides, the “optovin response” value in the data set on zebrafish [3] is listed as “only reduced the optovin response at concentrations that also reduced eASRs”.

With `CCCC(C)C1(CC)C(=O)NC(=S)NC1=O` (centres unmarked) [thiopental], in data set [2] (setting [8]), the “FLIPR Results” value was “Positive”.

Regarding `COc1ccccc1-c1coc2cc(OC(=O)c3cccs3)ccc2c1=O` [compound 6645327], in data set [2] (setting [6]), the “Ave Norm FLIPR Score” value is on record as -4.734.

In the case of `C[C@]12CC[C@H]3[C@@H](CCC4=CC(=O)CC[C@@]43C)[C@@H]1CC[C@@H]2C(=O)CO` [DOC, 11-deoxycorticosterone], the “enhanced acoustic startle response” value with zebrafish [1] (setting [7]) is “most potent compounds tested”. In addition, in data set [2] (setting [6]), the “Ave Norm FLIPR Score” value is -4.308.

Consider `CCC(=O)c1c(C)nc2n(Cc3ccccc3)c3ccccc3n12` [compound 5649824], for which the “Ave Norm FLIPR Score” value in data set [2] (setting [6]) came out at 41.41. In addition, in data set [2] (setting [8]), the “FLIPR Results” value is “Positive”.

Take `Clc1ccc(CSc2nc3ccccc3[nH]2)cc1` [compound 5551268]: in data set [2] (setting [6]), the “Ave Norm FLIPR Score” value is listed as -1.463.

For `Nc1ccc(Oc2ccc(Cl)c3cccnc23)c(Cl)c1` [compound 5846886], the “Ave Norm FLIPR Score” value in data set [2] (setting [6]) is listed as -5.255.

Take `Nc1ccc(OC(F)(F)F)cc1C(=O)c1ccccc1` [compound 7113584]: the “Ave Norm FLIPR Score” value in data set [2] (setting [6]) was -2.455.

With `COc1ccc(S(=O)(=O)NC2CCCC2)cc1Br` [compound 6028165], in the data set on zebrafish [1], the “rescue of behavioral phenotypes” value was “partially rescued”. Also, in data set [2] (setting [6]), the “Ave Norm FLIPR Score” value was found to be 28.76. Also, the “FLIPR Results” value in data set [2] (setting [8]) is “Positive”. The “optovin response” value in the data set on zebrafish [3] is “only reduced the optovin response at concentrations that also reduced eASRs”.

Take `O=C(Nc1c(C(=O)Nc2ccc(Cl)cc2)cnn1-c1ccccc1)c1ccccc1F` [compound 5587256]: in data set [2] (setting [6]), the “Ave Norm FLIPR Score” value is -26.37.

In the case of `CC(=O)/N=C(/Nc1cccc(C(F)(F)F)c1)Nc1nc(C)cc(C)n1` [compound 5869570], the “Ave Norm FLIPR Score” value in data set [2] (setting [6]) was found to be 15.04. Further, in data set [2] (setting [8]), the “FLIPR Results” value is given as “Positive”.

In the case of `Cc1cccc(OCCn2c(NC(=O)c3ccco3)nc3ccccc32)c1` [compound 7273455], the “Ave Norm FLIPR Score” value in data set [2] (setting [6]) is recorded as 7.892. Moreover, the “FLIPR Results” value in data set [2] (setting [8]) is on record as “Positive”.

As to `CN1C(=O)CN=C(c2ccccc2)c2cc(Cl)ccc21` [diazepam], the “enhanced acoustic startle response” value with zebrafish [1] (zebrafish, in vivo) is “produced eASRs that were relatively weak and inconsistent; also recorded: produced intermediate eASR phenotypes”. For the same molecule, the “Ave Norm FLIPR Score” value in data set [2] is reported as -10.9.

Turning to `O=S(=O)(Nc1ccc(OCc2ccccc2)cc1)c1ccc2c(c1)OCCO2` [compound 6163607], in data set [2] (setting [6]), the “Ave Norm FLIPR Score” value is -5.679.

Regarding picrotoxin, in the data set with zebrafish [1] (zebrafish, in vivo), the Phenoscore is 0.03. In addition, the “pERK labeling (neuronal activity)” value in the data set on zebrafish [4] (in words) is reported as “neuronal activity increased in the telencephalon but not in the hindbrain”. Also, in data set [2] (setting [6]), the “Ave Norm FLIPR Score” value was -9.76. In data set [2] (in the presence of GABA), the “GABAAR PAM activity in FLIPR, in words” value is recorded as “PAM activity was not observed”.

As to `CC(C)c1cccc(C(C)C)c1O` [propofol], the “enhanced acoustic startle response” value with zebrafish [1] (zebrafish, in vivo) was “caused enhanced acoustic startle responses”. Further, in the data set on zebrafish [5] (3 µM), the “alive/total 10 min” value is reported as 100/100, the “alive/total 1 hour” value is reported as 100/100 and the “alive/total 5 hours” value is listed as 100/100. Also, in the data set on zebrafish [5] (6 µM), the “alive/total 10 min” value was 100/100, the “alive/total 1 hour” value is 100/100 and the “alive/total 5 hours” value is 100/100. In the data set on zebrafish [5] (12 µM), the “alive/total 10 min” value is listed as 100/100, the “alive/total 1 hour” value is on record as 100/100 and the “alive/total 5 hours” value was 99/100. In addition, in the data set on zebrafish [5] (zebrafish, in vivo), the “toxicity at the concentrations that caused eASRs” value is listed as “Neither etomidate or propofol was toxic”. Moreover, in the data set with zebrafish [4] (zebrafish, in vivo), the “pERK labeling (neuronal activity)” value is given as “broadly reduced”. In data set [2], the “Ave Norm FLIPR Score” value is reported as 34.52; the “FLIPR Results” value is on record as “Positive”; the “GABAAR PAM activity in FLIPR, in words” value was “increased fluorescence in the presence of GABA”.

As for `CCOc1ccccc1NS(=O)(=O)c1ccc(OC)c(Br)c1` [compound 6030006], the “rescue of behavioral phenotypes” value in the data set with zebrafish [1] was “partially rescued”. In data set [2] (setting [6]), the “Ave Norm FLIPR Score” value turned out to be 3.046.

In the case of `O=C(Cc1ccc(Cl)cc1)Nc1cccc(C(=O)c2ccccc2)c1` [compound 7100598], the “Ave Norm FLIPR Score” value in data set [2] (setting [6]) was determined as 7.736. Besides, the “FLIPR Results” value in data set [2] (setting [8]) is “Positive”.

As to `CCOC(=O)c1c(C)n(Cc2ccco2)c2ccc(OC)cc12` [compound 7114005], the “Ave Norm FLIPR Score” value in data set [2] (setting [6]) is 15.23. For the same molecule, in data set [2] (setting [8]), the “FLIPR Results” value is “Positive”. Moreover, the “optovin response” value in the data set with zebrafish [3] was “blocked optovin-induced motor activity”.

Consider `CCOC(=O)Nc1sc(C)c(CC)c1C(=O)OCC` [compound 5695025], for which, in data set [2] (setting [6]), the “Ave Norm FLIPR Score” value stood at 32.27. Moreover, in data set [2] (setting [8]), the “FLIPR Results” value is “Positive”.

`COc1cc(OC)cc(C(=O)Nc2ccc(Cl)cc2C(F)(F)F)c1` [compound 6376886]: the “Ave Norm FLIPR Score” value in data set [2] (setting [6]) is on record as 32.44. In addition, the “FLIPR Results” value in data set [2] (setting [8]) was “Positive”.
